Test results published in patent publication US20120040965A1, “SUBSTITUTED AZEPINO[4,3-B]INDOLES, PHARMACOLOGICAL COMPOSITION AND A METHOD FOR THE PRODUCTION AND USE THEREOF” (priority 2006, published 2012).

Tests used:
[1] = test system: male mice of C57BL/6 line; test: Test of familiar object recognition in a novel localization (spatial memory); format: in vivo; details: for % of time investigating the object in a novel localization / % of time investigating the object in familiar localization: testing 48 hr after training; for effect on memory: doses of 1 mg/kg and 5 mg/kg
Source text: Testing of compounds of general formula 1 on spatial memory in test of novel object recognition. Test of novel object recognition is based on the fact that rats and mice investigate spontaneously a novel object or novel object localization (NL) for longer period of time than the known object or known object localization (KL). The test was tried on rats [A. Ennaceur and J. Delacour, A new one-trial test for neurobiological studies of memory in rats. 1: behavioral data. Behay. Brain Res. 1988, 31, 47-59; J. C. Dodart, C. Mathis and A. Ungerer, Scopolamine-induced deficits in a two-trial object recognition task in mice. NeuroReport 1997, 8, 1173-1178; C. Messier, Object recognition in mice: improvement of memory by glucose. Neurobiol. Learn. Mem. 1997, 67, 172-175; C. Pittenger, Y. Y. Huang, R. F. Paletzki, R. Bourtchouladze, H. Scanlin, S. Vronskaya et al., Reversible inhibition of CREB/ATF transcription factors in region CA1 of the dorsal hippocampus disrupts hippocampus-dependent spatial memory. Neuron 2002, 34, 447-462; A. E. Ryabinin, M. N. Miller and S. Durrant, Effects of acute alcohol administration on object recognition learning in C57BL/6J mice. Pharmacol. Biochem. Behay. 2002, 71, 307-312; F. Sargolini, P. Roullet, A. Oliverio and A. Mele, Effects of intra-accumbens focal administrations of glutamate antagonists on object recognition memory in mice. Behay. Brain Res. 2003, 138, 153-163].
Test of novel object recognition consists of two tests. The first one is novel object localization test use for examination of spatial memory, and the second one—test of novel object recognition for exploring non spatial memory [D. Gaffan, Amnesia for complex naturalistic scenes and for objects following formix transaction in the Rhesus monkey. Eur. J. Neurosci. 1992, 4, 381-388; B. Kolb, K. Buhrmann, R. McDonald and R. Sutherland, Dissociation of the medial prefrontal, posterior parietal, and posterior temporal cortex, for spatial navigation and recognition memory in the rat. Cereb. Cortex 1994, 6, 664-680; T. Steckler, W. H. I. M. Drinkenburgh, A. Sahgal and J. P. Aggleton, Recognition memory in rats. I. Concepts and classification. Prog. Neurobiol. 1998, 54, 289-311. T. Steckler, W. H. I. M. Drinkenburgh, A. Sahgal and J. P. Aggleton, Recognition memory in rats II. Neuroanatomical substrates. Prog. Neurobiol. 1998, 54, 313-332].
Methods of Investigation.
Subjects were male mice of 3-5 month age of C57BL/6 line, weighing 20-24 g. Animals were housed 5 per cage at light mode 12×12 hr with a light part from 8 till 20 o'clock with water and food available. Experimental setup was made of non-transparent white organic glass measuring 48×38×30 cm. As objects of recognition brown glass bottles measuring 2.7 cm diameter and 5.5 cm high were used. The cage and objects of recognition were wiped with 85% alcohol 2-3 min prior placing an animal in the cage. Animals were always placed in the cage centre. 40 Mg of compound of general formula 1 were dissolved in 0.2 ml of DMSO with the following addition of distilled water up to desired concentration. Solutions were prepared just before a trial. All experiments were carried out on two groups of 10 mice each. Animals were injected in dose 1 and 5 mg/kg in volume 0.05 ml on 10 g of animal weight one hour before the trial. The control animals were injected with an equal volume of distilled water.
Acquaintance with the behavioural cage. At the first test day mice were placed into a research chamber and allowed to acclimate for 20-30 min. After that each animal was placed for 10 minutes into an empty, previously treated with alcohol behavioural chamber for acclimation. Then the animal was placed into the cage and taken back to vivarium.
Training. Next day the same mice were placed into a behavioural chamber and allowed to explore for 20-30 min; after acclimation animals were injected intragastrically by the solution of tested compound. […]

[2] = test system: male mice of C57BL/6 line; test: Acute toxicity in mice; format: in vivo; details: for animals' death: 100 mg/kg
Method: Research of acute toxicity. Acute toxicity of the proposed compounds was determined in male mice of C57BL/6 line. […] Observation time was 14 days.

[3] = dose 1 mg/kg intragastrically one hour before training
[4] = dose 5 mg/kg intragastrically one hour before training

## Cc1ccc2c(c1)[C@@H]1CN(C)CCC[C@H]1N2Cc1ccccn1.Cl.Cl (relative stereo) [1.2.6(4)HCl, trans-2,9-dimethyl-6-[(pyridin-2-yl)methyl]-1,2,3,4,5,5a,6,10b-octahydroazepino[4,3-b]indole dihydrochloride]
[1]; [3]
  % of time investigating the object in a novel localization: 49.11±3.3%
  % of time investigating the object in familiar localization: 41.3±9.7%
[1]; [4]
  % of time investigating the object in a novel localization: 60.1±9.0%
  % of time investigating the object in familiar localization: 39.9±9.0%
[1]
  effect on memory: stimulating effect on memory
[2]; doses 100 and 50 mg/kg, mice
  duration of sedative action: > 24 h
  onset of sedative action after injection: 5 to 10 min
  sedative action: pronounced sedative action
[2]; doses of 1 and 5 mg/kg, mice
  sedative action: not observed
[2]; unitary introduction into stomach, 14 days of watching
  animals' death: do not cause animals' death

## Cc1ccc2c(c1)c1c(n2CCc2ccc(C)nc2)CCCN(C)C1.Cl.Cl [1.1.5(2)HCl, 2,9-dimethyl-6-[2-(6-methylpyridin-3-yl)ethyl]-1,2,3,4,5,6-hexahydroazepino[4,3-b]indole dihydrochloride]
[1]; [3]
  % of time investigating the object in a novel localization: 58.7±9.7%
  % of time investigating the object in familiar localization: 41.3±9.7%
[1]; [4]
  % of time investigating the object in a novel localization: 58.8±11.1%
  % of time investigating the object in familiar localization: 41.2±11.1%
[1]
  effect on memory: stimulating effect on memory
[2]; mouse, in vivo
  animals' death: do not cause animals' death

## Cc1ccc2c(c1)c1c(n2CCc2ccncc2)CCCN(C)C1.Cl.Cl [1.1.5(3)HCl, 2,9-dimethyl-6-[2-(pyridin-4-yl)ethyl]-1,2,3,4,5,6-hexahydroazepino[4,3-b]indole dihydrochloride]
[1]; [3]
  % of time investigating the object in a novel localization: 55.5±6.2%
  % of time investigating the object in familiar localization: 44.5±6.2%
[1]; [4]
  % of time investigating the object in a novel localization: 59.9±5.9%
  % of time investigating the object in familiar localization: 40.1±5.9%
[1]
  effect on memory: stimulating effect on memory
[2]; mouse, in vivo
  animals' death: do not cause animals' death
